PubChem BioAssay AID328 (DTP/NCI, 2004)
“And” between values parts separate entries of the source, which are not always exact repeats. Equal values may be shown once. Toxic doses and inconclusive results are not listed. Rule for the calls: active = survival T/C of 150% or more; inactive = T/C below 125% in these data.

System: BDF1 mice, P388 leukemia ip, median survival T/C
Assay: NCI In Vivo Anticancer Drug Screen. Data for tumor model P388 Leukemia (intraperitoneal) in B6D2F1 (BDF1) mice
Conditions: endpoint: median survival time, higher = longer survival
Outline: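 Survival ratio, drug arm over vehicle arm, in mice with a transplanted tumour.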

[1] = dose: 6.25 mg/kg/injection, schedule: Q04DX003 (ip), vehicle: saline with Tween-80
[2] = dose: 12.5 mg/kg/injection, schedule: Q04DX003 (ip), vehicle: saline with Tween-80
[3] = dose: 25.0 mg/kg/injection, schedule: Q04DX003 (ip), vehicle: saline with Tween-80
[4] = dose: 50.0 mg/kg/injection, schedule: Q01DX009 (ip), vehicle: saline with Tween-80
[5] = dose: 50.0 mg/kg/injection, schedule: Q04DX003 (ip), vehicle: saline with Tween-80
[6] = dose: 100.0 mg/kg/injection, schedule: Q01DX009 (ip), vehicle: saline with Tween-80
[7] = dose: 100.0 mg/kg/injection, schedule: Q04DX003 (ip), vehicle: saline with Tween-80
[8] = dose: 200.0 mg/kg/injection, schedule: Q01DX009 (ip), vehicle: saline with Tween-80
[9] = dose: 200.0 mg/kg/injection, schedule: Q04DX003 (ip), vehicle: saline with Tween-80
[10] = dose: 400.0 mg/kg/injection, schedule: Q01DX009 (ip), vehicle: saline with Tween-80
[11] = dose: 400.0 mg/kg/injection, schedule: Q04DX003 (ip), vehicle: saline with Tween-80
[12] = dose: 100.0 mg/kg/injection, schedule: Q04DX003 (ip), vehicle: saline
[13] = dose: 200.0 mg/kg/injection, schedule: Q04DX003 (ip), vehicle: saline
[14] = dose: 400.0 mg/kg/injection, schedule: Q04DX003 (ip), vehicle: saline
[15] = dose: 25.0 mg/kg/injection, schedule: Q01DX009 (ip), vehicle: saline with Tween-80
[16] = dose: 100.0 mg/kg/injection, schedule: Q01DX009 (ip), vehicle: Klucel (hydroxypropylcellulose) (HPC)
[17] = dose: 100.0 mg/kg/injection, schedule: Q01DX009 (ip), vehicle: saline
[18] = dose: 200.0 mg/kg/injection, schedule: Q01DX009 (ip), vehicle: Klucel (hydroxypropylcellulose) (HPC)
[19] = dose: 400.0 mg/kg/injection, schedule: Q01DX009 (ip), vehicle: saline
[20] = dose: 200.0 mg/kg/injection, schedule: Q01DX009 (ip), vehicle: saline
[21] = dose: 50.0 mg/kg/injection, schedule: Q01DX009 (ip), vehicle: Klucel (hydroxypropylcellulose) (HPC)

Measured: T/C

CC1(C)CN(Cc2ccccc2)C(C)(C)CN1
inactive: dose: 0.78 mg/kg/injection, schedule: Q01DX009 (ip), vehicle: saline with Tween-80 89 % of control | dose: 1.56 mg/kg/injection, schedule: Q01DX009 (ip), vehicle: saline with Tween-80 97 % of control | dose: 3.12 mg/kg/injection, schedule: Q01DX009 (ip), vehicle: saline with Tween-80 95 % of control | dose: 3.12 mg/kg/injection, schedule: Q04DX003 (ip), vehicle: saline with Tween-80 114 % of control | dose: 6.25 mg/kg/injection, schedule: Q01DX009 (ip), vehicle: saline with Tween-80 91 % of control | [1] 108 % of control | [2] 96 % of control | [3] 89 % of control

COC(=O)C1C(=O)COC1C (centres undefined)
inactive: dose: 12.5 mg/kg/injection, schedule: Q01DX005 (ip), vehicle: saline with Tween-80 109 % of control | dose: 25.0 mg/kg/injection, schedule: Q01DX005 (ip), vehicle: saline with Tween-80 112 % of control | dose: 50.0 mg/kg/injection, schedule: Q01DX005 (ip), vehicle: saline with Tween-80 110 % of control

C[C@]12CCCC[C@@H]1CC[C@@H]1[C@@H]2[C@@H](O)C[C@]2(C)[C@@H](O)CC[C@@H]12
inactive: [4] 95 % of control and 100 % of control | [5] 100 % of control | dose: 66.0 mg/kg/injection, schedule: Q04DX003 (ip), vehicle: saline with Tween-80 95 % of control | [6] 95 % of control and 100 % of control | [7] 122 % of control | dose: 150.0 mg/kg/injection, schedule: Q04DX003 (ip), vehicle: saline with Tween-80 90 % of control | [8] 90 % of control and 100 % of control | [9] 100 % of control

COC(OC)c1[nH]c(=S)[nH]c(=O)c1Cc1ccc(C)c(C)c1
inactive: [6] 103 % of control | [8] 96 % of control | [10] 100 % of control

CCOC(=O)C(Br)c1cccc(OC)c1 (centres undefined)
inactive: [7] 100 % of control | [9] 100 % of control | [11] 110 % of control

NC(CO)CSCc1ccccc1 (centres undefined)
inactive: dose: 12.5 mg/kg/injection, schedule: Q04DX003 (ip), vehicle: saline 114 % of control | dose: 25.0 mg/kg/injection, schedule: Q04DX003 (ip), vehicle: saline 104 % of control | dose: 50.0 mg/kg/injection, schedule: Q04DX003 (ip), vehicle: saline 98 % of control | [12] 97 % of control

Oc1ccccc1C=NC1CCCCC1.Oc1ccccc1C=NC1CCCCC1.[Ni+2]
inactive: dose: 50.0 mg/kg/injection, schedule: Q04DX003 (ip), vehicle: saline sonified 109 % of control | dose: 100.0 mg/kg/injection, schedule: Q04DX003 (ip), vehicle: saline sonified 109 % of control | dose: 200.0 mg/kg/injection, schedule: Q04DX003 (ip), vehicle: saline sonified 100 % of control

Clc1ccc(/C(=C(\Br)c2ccccc2)c2ccccc2)cc1
inactive: [6] 104 % of control and 100 % of control | [8] 86 % of control and 100 % of control | [10] 95 % of control and 90 % of control

CC(=O)CC(C)=O.CC(=O)CC(C)=O.[CH3][Sn][CH3]
inactive: dose: 25.0 mg/kg/injection, schedule: Q01DX001 (ip), vehicle: Klucel (hydroxypropylcellulose) (HPC) 111 % of control | dose: 50.0 mg/kg/injection, schedule: Q01DX001 (ip), vehicle: Klucel (hydroxypropylcellulose) (HPC) 119 % of control

COc1ccc(C(=O)C=C(C(F)(F)F)C(F)(F)F)cc1
inactive: [1] 113 % of control | [2] 100 % of control | [3] 100 % of control | [5] 115 % of control | [7] 110 % of control

Nc1ccc(OC(=O)Oc2ccc(N)cc2)cc1
inactive: dose: 264.0 mg/kg/injection, schedule: Q01DX009 (ip), vehicle: saline with Tween-80 100 % of control | [10] 104 % of control

Nc1nc(CNc2ccc(Cl)cc2)nc(Nc2cccc(Cl)c2)n1
inactive: dose: 100.0 mg/kg/injection, schedule: Q01DX001 (ip), vehicle: saline sonified 100 % of control | dose: 200.0 mg/kg/injection, schedule: Q01DX001 (ip), vehicle: saline sonified 105 % of control | dose: 400.0 mg/kg/injection, schedule: Q01DX001 (ip), vehicle: saline sonified 100 % of control

CCCOP(=O)(CCl)OCCC
inactive: [12] 95 % of control | [13] 100 % of control | [14] 100 % of control

CC(=N\O)/C(C)=N/O.CC(=N\O)/C(C)=N/O.[Cu]
inactive: dose: 3.0 mg/kg/injection, schedule: Q01DX009 (ip), vehicle: Klucel (hydroxypropylcellulose) (HPC) 100 % of control | dose: 6.25 mg/kg/injection, schedule: Q04DX003 (ip), vehicle: Klucel (hydroxypropylcellulose) (HPC) 118 % of control | dose: 12.5 mg/kg/injection, schedule: Q04DX003 (ip), vehicle: Klucel (hydroxypropylcellulose) (HPC) 118 % of control

CC1CC2OC(=O)C3=C2C(CCC3)C12CC(c1ccoc1)OC2=O (centres undefined)
inactive: dose: 25.0 mg/kg/injection, schedule: Q01DX001 (ip), vehicle: saline with Tween-80 111 % of control | dose: 50.0 mg/kg/injection, schedule: Q01DX001 (ip), vehicle: saline with Tween-80 106 % of control | dose: 100.0 mg/kg/injection, schedule: Q01DX001 (ip), vehicle: saline with Tween-80 106 % of control | dose: 200.0 mg/kg/injection, schedule: Q01DX001 (ip), vehicle: saline with Tween-80 116 % of control

CCOC(=O)c1cccc(OP(=O)(N(C)C)N(C)C)c1
inactive: [4] 108 % of control | [6] 116 % of control

O=C(O)c1ccccc1P12(OC(=O)c3ccccc31)OC(=O)c1ccccc12
inactive: [15] 99 % of control | [4] 99 % of control | [6] 90 % of control

Nc1ccc(N=Nc2ccccc2)c(N)c1
inactive: [15] 88 % of control | [4] 99 % of control | [16] 91 % of control | [6] 113 % of control | [17] 120 % of control | [12] 86 % of control | [18] 100 % of control | [8] 115 % of control | [13] 100 % of control | [19] 115 % of control | [14] 104 % of control

COc1ccc(C=NCCc2ccc(OC)c(OC)c2)cc1OC
inactive: [17] 97 % of control | [20] 97 % of control | [19] 105 % of control

O=C(O)CCCOc1ccc(Cl)cc1Cl
inactive: [17] 100 % of control | [20] 104 % of control | [19] 95 % of control

c1ccc(Sc2c(Sc3ccccc3)c(Sc3ccccc3)c(Sc3ccccc3)c(Sc3ccccc3)c2Sc2ccccc2)cc1
inactive: [7] 99 % of control | [9] 101 % of control | [11] 90 % of control

C[C@]12C=CC(=O)C=C1[C@@H](F)C[C@@H]1[C@@H]2[C@@H](O)C[C@@]2(C)[C@H]1CC[C@]2(O)C(=O)CO
inactive: dose: 25.0 mg/kg/injection, schedule: Q01DX009 (ip), vehicle: Klucel (hydroxypropylcellulose) (HPC) 104 % of control | [21] 96 % of control | [16] 91 % of control and 108 % of control | dose: 100.0 mg/kg/injection, schedule: Q04DX003 (ip), vehicle: Klucel (hydroxypropylcellulose) (HPC) 100 % of control | dose: 200.0 mg/kg/injection, schedule: Q04DX003 (ip), vehicle: Klucel (hydroxypropylcellulose) (HPC) 104 % of control | dose: 400.0 mg/kg/injection, schedule: Q04DX003 (ip), vehicle: Klucel (hydroxypropylcellulose) (HPC) 95 % of control

Cc1nc2n[nH]c(N)c2nc1C
inactive: [17] 100 % of control | [20] 100 % of control | [19] 91 % of control

CCOC(=O)C/C(C)=N\NC(=O)c1ccncc1
inactive: dose: 75.0 mg/kg/injection, schedule: Q01DX009 (ip), vehicle: saline with Tween-80 88 % of control | dose: 150.0 mg/kg/injection, schedule: Q01DX009 (ip), vehicle: saline with Tween-80 102 % of control

CCOC(=O)c1cc(-c2ccccc2)[nH]c1-c1ccccc1
inactive: dose: 50.0 mg/kg/injection, schedule: Q01DX009 (ip), vehicle: saline 96 % of control | [17] 100 % of control | [20] 98 % of control

O=S1(=O)CC(Cl)(Br)C1
inactive: [21] 105 % of control | [16] 114 % of control | [18] 123 % of control
